The text below walks through data of ChEMBL document CHEMBL5506027, “Discovery of a Novel and Potent Cyclin-Dependent Kinase 8/19 (CDK8/19) Inhibitor for the Treatment of Cancer” (J Med Chem, 2024).

One experiment has as its target CDK8/Cyclin C (Homo sapiens, UniProt P49336). Kind of experiment: Displacement of tracer 236 from CDK8/cyclin C (unknown origin) preincubated for 15 mins followed by tracer addition and measured after 60 mins by FRET based lanthascreen assay. Format: protein-complex assay. For orientation: Time-resolved FRET reads energy transfer from a long-lived donor to a nearby acceptor.

Another experiment relates to MV4-11. Kind of experiment: Antiproliferative activity against human MV4-11 cells incubated for 5 days by CellTiter-Glo luminescent cell viability assay. It is filed as functional, cell-based. As to conditions: MV4-11, 120 h. In general terms: ATP-based viability assays read luminescence as a measure of living cells.

SMILES strings stand for the structures.

CDK8/Cyclin C, sequence (P49336 whole entry): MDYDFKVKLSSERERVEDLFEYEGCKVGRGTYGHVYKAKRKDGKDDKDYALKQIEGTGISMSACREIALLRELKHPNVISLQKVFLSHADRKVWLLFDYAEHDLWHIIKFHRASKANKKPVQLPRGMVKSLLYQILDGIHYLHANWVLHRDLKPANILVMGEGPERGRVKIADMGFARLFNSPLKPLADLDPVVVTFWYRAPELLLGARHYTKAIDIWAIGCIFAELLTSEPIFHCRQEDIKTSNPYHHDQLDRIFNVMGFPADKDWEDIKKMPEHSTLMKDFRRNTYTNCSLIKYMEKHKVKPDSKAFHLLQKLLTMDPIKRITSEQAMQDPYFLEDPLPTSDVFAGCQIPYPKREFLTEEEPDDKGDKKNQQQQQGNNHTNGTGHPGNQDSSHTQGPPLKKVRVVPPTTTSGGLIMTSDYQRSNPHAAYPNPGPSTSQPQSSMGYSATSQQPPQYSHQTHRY
CDK8/Cyclin C, sequence (P24863 whole entry, further chain): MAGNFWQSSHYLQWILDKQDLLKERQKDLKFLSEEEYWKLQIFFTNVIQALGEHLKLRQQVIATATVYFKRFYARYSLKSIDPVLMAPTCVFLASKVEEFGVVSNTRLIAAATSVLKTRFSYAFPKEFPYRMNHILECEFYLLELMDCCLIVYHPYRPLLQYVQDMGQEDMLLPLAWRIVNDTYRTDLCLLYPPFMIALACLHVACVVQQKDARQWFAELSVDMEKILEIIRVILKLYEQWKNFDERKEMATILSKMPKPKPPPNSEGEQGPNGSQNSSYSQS

The IC50 is the concentration at which inhibition is half-maximal. `Cc1c(Br)c(Br)c(C)c2c1nc(N1CCNCC1)n2C1CCCC1`: the IC50 on CDK8/Cyclin C was 139 nM; in the experiment on MV4-11, above 1000 nM.
The corresponding values for `C#Cc1c(Br)c(Br)cc2c1nc(N1CCNCC1)n2C1CCOCC1` are 10.8 nM and 72.5 nM.
In the case of `Cc1c(Br)c(Br)cc2c1nc(N1CCNCC1)n2C1CCCC1`, the IC50 at CDK8/Cyclin C came out at 36.3 nM; in the experiment on MV4-11, 421 nM.
In the same order, the values of `Brc1cc2c(nc(N3CCNCC3)n2C2CCOCC2)c(C2CC2)c1Br` are 48.6 nM and above 1000 nM.
In the same order, the values of `Cc1c(Br)c(Br)cc2c1nc(N1CCNCC1)n2C1CC2(COC2)C1` are above 1000 nM and 795 nM.
In the same order, the values of `NC1CCN(c2nc3c(C(F)F)c(Br)c(Br)cc3n2C2CCOCC2)CC1` are 35 nM and 188 nM.
For `OCCN1CCN(c2nc3c(C(F)F)c(Br)c(Br)cc3n2C2CCOCC2)CC1`, the figures for the IC50 at CDK8/Cyclin C and in the experiment with MV4-11 were 6.5 nM and 32.7 nM, respectively.
In the same order, the values of `Brc1cc2nc(N3CCNCC3)n(C3CCOCC3)c2cc1Br` are 166 nM and 526 nM.
In the same order, the values of `Cc1c(Br)c(Br)cc2c1nc(N1CCNCC1)n2C1CCOCC1` are 7.9 nM and 39.4 nM.
As to `CN1CCN(c2nc3c(C(F)F)c(Br)c(Br)cc3n2C2CCOCC2)CC1`, the IC50 at CDK8/Cyclin C was found to be 6.4 nM; in the experiment with MV4-11 it was 152 nM.
The corresponding values for `C=Cc1c(Br)c(Br)cc2c1nc(N1CCNCC1)n2C1CCOCC1` are 33.6 nM and 360 nM.
In the same order, the values of `Clc1c(Br)c(Br)cc2c1nc(N1CCNCC1)n2C1CCOCC1` are 91 nM and above 1000 nM.
As for `Cc1c(Br)c(Br)cc2c1nc(N1CCNCC1)n2[C@H]1CC[C@H](O)CC1`, the figures for the half-maximal inhibitory concentration (IC50) on CDK8/Cyclin C and in the experiment on MV4-11 were 11.2 nM and 146 nM, respectively.
The corresponding values for `N[C@@H]1CCN(c2nc3c(C(F)F)c(Br)c(Br)cc3n2C2CCOCC2)C1` are 20 nM and 33.8 nM.
Take `Cc1c(Br)c(Br)cc2c1nc(N1CCNCC1)n2C1CCCOC1` (stereo not given): the IC50 is 16.7 nM on CDK8/Cyclin C and 478 nM with MV4-11.
